What is called ED50 is the dose that gives a 50% effect, or the effect in half of the subjects.

Data on eight compounds can be found in patent US4483853A, “Amino acid isomers, their production and their medicinal use” (priority 1981, dated 1984).

The subject of one test is sound-induced seizures. In words: Sound-induced (audiogenic) seizures in DBA/2 mice, i.c.v. or i.p. (WR, clonus, tonus). Format: in vivo. The note with it: for order of potency: congeneric series of phosphonic acid analogues, i.c.v. DBA/2 mice; for Minimum dose to suppress WR / ED50 Clonus / ED50 Tonus / ED50 WR / activity (in words): i.c.v., DBA/2 mice; for Minimum dose to suppress WR: 45 minutes before sound, P < .01; for ED50 WR: wild running phase. How it is done:
(§1) Dicarboxylic amino acids and their thio-analogues were tested as potential anticonvulsants in animal models of epilepsy by being administered intracerebroventricularly (i.c.v.) or intraperitoneally (i.p.) in mice (either DBA/2 mice showing sound-induced seizures, or Swiss S mice given a just-convulsant dose of pentylenetetrazol, s.c.) or intravenously in baboons, Papio papio, with photosensitive epilepsy. A close correlation was found between the ability of antagonists to block excitation due to NMDA (N-methyl-D-aspartic acid) and suppression of sound-induced seizures following i.c.v. injection in DBA/2 mice. […] Following systemic administration in mice 2-amino-7-phosphonoheptanoic acid was active against sound-induced seizures (0.1-0.33 mmoles/kg, i.p.) and against pentylenetetrazol seizures (1.2 mmoles/kg). It is also active against photosensitive epileptic responses in baboons (1.0 mmoles/kg, i.v.)
(i) Anticonvulsant activity of excitatory amino acid antagonists in DBA/2 mice
DBA/2 mice were chosen as being an inbred strain in which, within a critical age range, a fixed sequence of seizure response can be induced by a loud sound. Groups of DBA/2 mice (N=6 to 10), 21 to 28 days old, were injected intracerebroventricularly under light ether anesthesia with 10 μl of drug solution or phosphate buffer alone (pH 7.3). Auditory stimulation (electric bell generating 109 dB at mouse level) was applied 45 minutes later for 60 seconds or until tonic extension was observed and the incidence and timing of the phases of the seizure response were recorded. These included an initial wild running phase (WR) followed by myocolonus, tonic flexion, and extension and, frequently, respiratory arrest. Seizure response was scored as described in Eur. J. Pharmacol 59, 75 (1979), and comparisons between groups of control and drug-treated animals were made by using Fisher's exact probability test. Successive doses, with a geometric factor of 3, were tested until an adequate log dose-response curve (three to six points) could be constructed for each antagonist for each phase of the seizure response, and ED50 values were graphically determined. A rank order of anticonvulsant potency was allocated to each antagonist for comparison with iontophoretic data; O denoting no activity and X to XXXX denoting increasingly marked activity.
(§2) Studies of audiogenic seizures were performed as described in Example(i). For intraperitoneal administration the antagonist was injected with 0.1 ml of saline 45 minutes before testing. Antagonism of pentylenetetrazol (PTZ: threshold) seizures was studied in random-bred Swiss mice (Tuck T/O strain: 28 days old; 20 to 23 g). Mice in groups (N=10) received pentylenetetrazol (85 mg/kg: 0.85 percent solution in 0.9 percent sodium chloride) subcutaneously in a loose fold of skin on the back of the neck 45 minutes after intracerenroventricular or intraperitoneal administration of drug or vehicle. During the 30-minute observation period sustained rhythmic clonic jerking with tonic spasms occured in 90 to 100 percent of control mice. The incidence and timing of clonic episodes was recorded with absence of sustained clonic jerking (no episode of 5 seconds duration or longer) being defined as protection. The ED50 values and 95 percent fiducial limits were estimated by using the method of moving averages (by the method described in Biometrics 8, 249 (1952) with data from four successive dose levels.

The subject of test [1] is photosensitive epileptic responses. Nature of the test: Photosensitive epilepsy in baboons. It counts as in vivo, Papio papio. The note with it: i.v. How it is done:
as §1

The subject of test [2] is pentylenetetrazol seizures. Nature of the test: Pentylenetetrazol-induced seizures in Swiss S mice. Format: in vivo. As to the method: as §1, §2
Test [3] concerns Kainic acid-excited receptors. Nature of the test: Block of kainic acid-excited receptors. Particulars: CNS receptors.
In test [4] the test system is ibotenic acid-excited receptors. Nature of the test: Block of ibotenic acid-excited receptors. Particulars: CNS receptors.
In a further test the test system is quisqualate receptor. The note with it: cited from earlier work.
The subject of test [5] is kainate-induced excitation. The note with it: cited from earlier work.
In the next test the test system is NMDA. Particulars: cited from earlier work.

Like-named read-outs stand apart in the source and are kept apart here.

`NC(CCP(=O)(O)O)C(=O)O` (racemic) [(±)-2-Amino-4-phosphonobutyric acid, reference compound]: the order of potency with sound-induced seizures is 2-amino-7-phosphonoheptanoate>2-amino-5-phosphonopentanoic acid>2-amino-6-phosphonohexanoic acid>2-amino-4-phosphonobutyric acid.
For `NC(CCCP(=O)(O)O)C(=O)O` (racemic) [(±)-2-Amino-5-phosphonopentanoic acid], in the test with sound-induced seizures, the order of potency is 2-amino-7-phosphonoheptanoate>2-amino-5-phosphonopentanoic acid>2-amino-6-phosphonohexanoic acid>2-amino-4-phosphonobutyric acid, the “Minimum dose to suppress WR” value was found to be 0.1 μ mole, the “ED50 Clonus” value worked out at 0.022 μ mole and the “ED50 Tonus” value amounted to 0.025 μ mole. The “ED50 WR” value in the test with sound-induced seizures was 0.046 μ mole.
For `NC(CCCCP(=O)(O)O)C(=O)O` (racemic) [(±)-2-Amino-6-phosphonohexanoic acid], in the test with sound-induced seizures, the order of potency is recorded as 2-amino-7-phosphonoheptanoate>2-amino-5-phosphonopentanoic acid>2-amino-6-phosphonohexanoic acid>2-amino-4-phosphonobutyric acid, the “Minimum dose to suppress WR” value was determined as 0.25 μ mole, the “ED50 Clonus” value is given as 0.14 μ mole and the “ED50 Tonus” value was 0.15 μ mole. The “ED50 WR” value in the test on sound-induced seizures was determined as 0.17 μ mole.
Turning to `NC(CCCCCP(=O)(O)O)C(=O)O` (racemic) [(±)-2-Amino-7-phosphonoheptanoic acid, (±)2-amino-7-phosphonoheptanoic acid], in the test on sound-induced seizures (Mus musculus, ip, 0.75 h, read-out: Minimum dose to suppress WR), the minimal effective dose is 330 µmol/kg. Also, in the test with sound-induced seizures (Mus musculus, ip, read-out: ED50 Clonus), the ED50 was 40 µmol/kg. Further, the ED50 with sound-induced seizures (Mus musculus, ip, read-out: ED50 Tonus) turned out to be 40 µmol/kg. The ED50 in the test on sound-induced seizures (Mus musculus, ip, read-out: ED50 WR) turned out to be 180 µmol/kg. For the same compound, in the test on sound-induced seizures, the order of potency was 2-amino-7-phosphonoheptanoate>2-amino-5-phosphonopentanoic acid>2-amino-6-phosphonohexanoic acid>2-amino-4-phosphonobutyric acid, the “Minimum dose to suppress WR” value was 0.01 μ mole, the “ED50 Tonus” value is 0.0008 μ mole and the “ED50 WR” value worked out at 0.004 μ mole. In the test on sound-induced seizures (mice, i.p.), the “active against sound-induced seizures, dose” value is 0.1 to 0.33 mmol/kg. Further, the “active against photosensitive epileptic responses, dose” value in test [1] turned out to be 1.0 mmol/kg. In addition, the ED50 in test [2] (Mus musculus, ip, intraperitoneal, pentylenetetrazol 85 mg/kg s.c., read-out: ED50 V PTZ (95% fiducial limits)) is 1180 µmol/kg. The “ED50 V PTZ (95% fiducial limits)” value in test [2] (intracerebroventricular, pentylenetetrazol 85 mg/kg s.c.) was 0.64 (0.19-2.13) μ mole. For the same compound, the “active against pentylenetetrazol seizures, dose” value in test [2] (mice, systemic administration) came out at 1.2 mmol/kg.
Consider `NC(CCCCCP(=O)(O)O)C(=O)O` (single isomer, unassigned; (+)) [(+)-2-Amino-7-phosphonoheptanoic acid], for which, in the test on sound-induced seizures, the “Minimum dose to suppress WR” value was 0.033 μ mole, the “ED50 Clonus” value is reported as 0.0018 μ mole, the “ED50 Tonus” value came to 0.0018 μ mole and the “ED50 WR” value is on record as 0.0135 μ mole.
Regarding `N[C@H](CCCCCP(=O)(O)O)C(=O)O` [(-)-2-Amino-7-phosphonoheptanoic acid], in the test on sound-induced seizures, the “Minimum dose to suppress WR” value is 0.0033 μ mole, the “ED50 Clonus” value is recorded as 0.0008 μ mole, the “ED50 Tonus” value came to 0.0008 μ mole and the “ED50 WR” value is 0.0022 μ mole. In addition, the “blocking of Kainic acid-excited receptors” value in test [3] is listed as “not a blocker of Kainic acid-excited receptors”. The “blocking of ibotenic acid-excited receptors” value in test [4] is “blocker of ibotenic acid-excited receptors”.
Take `CCOC(=O)CC[C@H](N)C(=O)OCC` [Glutamic acid diethylester, reference compound]: in the test on sound-induced seizures, the “activity (in words)” value is “inactive”. In the test with quisqualate receptor, the quisqualate receptor antagonism result is reported as “quisqualate receptor antagonist”.
Take `N[C@H](CCC(=O)NCC(=O)O)C(=O)O` [γ-D-Glutamylglycine, reference compound]: in test [5], the “antagonism of kainate-induced excitation” value was “antagonist of both kainate and NMDA-induced excitation”. In addition, in the test with sound-induced seizures, the “activity (in words)” value is on record as “equipotent with 2-amino-5-phosphonoheptanoic acid”, the “Minimum dose to suppress WR” value is on record as 0.1 μ mole, the “ED50 Clonus” value stood at 0.046 μ mole and the “ED50 Tonus” value came out at 0.054 μ mole. For the same compound, the “ED50 WR” value with sound-induced seizures is listed as 0.058 μ mole. In the test with NMDA, the “antagonism of NMDA-induced excitation” value is “antagonist of both kainate and NMDA-induced excitation”.
